The target in one data set is T1, ERα (Homo sapiens, UniProt P03372).
T1 sequence (P03372 1-595): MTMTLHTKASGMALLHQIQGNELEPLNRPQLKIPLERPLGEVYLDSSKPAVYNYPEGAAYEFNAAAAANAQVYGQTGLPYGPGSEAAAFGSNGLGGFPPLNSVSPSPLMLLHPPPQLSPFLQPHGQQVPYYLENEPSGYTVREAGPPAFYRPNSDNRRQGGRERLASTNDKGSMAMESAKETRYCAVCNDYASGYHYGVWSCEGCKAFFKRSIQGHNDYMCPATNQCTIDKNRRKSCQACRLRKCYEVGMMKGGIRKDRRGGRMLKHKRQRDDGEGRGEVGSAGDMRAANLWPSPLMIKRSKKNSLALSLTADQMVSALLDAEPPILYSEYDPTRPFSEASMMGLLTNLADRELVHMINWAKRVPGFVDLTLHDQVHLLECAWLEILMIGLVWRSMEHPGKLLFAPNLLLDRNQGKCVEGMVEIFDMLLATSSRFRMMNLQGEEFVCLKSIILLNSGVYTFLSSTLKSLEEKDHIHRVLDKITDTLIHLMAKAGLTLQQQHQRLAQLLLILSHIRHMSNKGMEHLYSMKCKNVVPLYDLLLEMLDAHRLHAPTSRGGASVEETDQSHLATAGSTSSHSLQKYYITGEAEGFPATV
The data set is described as follows: ERα reporter (luciferase) transactivation assay in transfected HEK293 cells. To be noted: sample concentration 10 μM, 24 hours, mean of at least three independent transfections. Details: expressed in transfected cells; host or cells: HEK293. The data set is classed as cell-based. The protocol:
(§1) Determination of the Estrogen Activity of the Compounds: Cell Culture, Transfection and Reporter Assays
(§2) All other reagents were of reagent grade from Sigma or Fluka. One day before transfection, HEK293 cells were seeded in 48-well plates (70×10^3 cells per well) in phenol-free Dulbecco's modified Eagle medium supplemented with 5% delipidated fetal bovine serum (Sigma) and antibiotics. After a medium change, the cells were transfected for 4 hours with 5 ng ERα or ERβ expression vector, 75 ng reporter plasmid pERE2TATA-LUC and 20 ng control plasmid pCMVβ by the calcium phosphate method. After transfection, the cells received fresh medium containing either vehicle (0.1% v/v) or test compound (10 μM). After 24 hours, the cells were washed, lysed and luciferase and β-galactosidase activities were determined from 20 μl of lysates with the Victor^2TM reader (PerkinElmer Wallac, Turku, Finland). […] The data are means ±SEM of at least three independent transfections.

Another data set addresses ERβ (Homo sapiens, UniProt Q92731). Kind of data set: ERβ reporter (luciferase) transactivation assay in transfected HEK293 cells. The data set is classed as cell-based. Also on record: expressed in transfected cells; host or cells: HEK293. To be noted: for ERβ receptor activation relative to 10 nM E2 corresponding 100: sample concentration 10 μM, 24 hours, mean of at least three independent transfections; for activation at 10 µM: HEK293, 24 h, read-out: ERβ receptor activation relative to 10 nM E2 corresponding 100, sample concentration 10 μM, mean of at least three independent transfections. On the procedure: as §1, §2

ERβ, sequence (Q92731 whole entry): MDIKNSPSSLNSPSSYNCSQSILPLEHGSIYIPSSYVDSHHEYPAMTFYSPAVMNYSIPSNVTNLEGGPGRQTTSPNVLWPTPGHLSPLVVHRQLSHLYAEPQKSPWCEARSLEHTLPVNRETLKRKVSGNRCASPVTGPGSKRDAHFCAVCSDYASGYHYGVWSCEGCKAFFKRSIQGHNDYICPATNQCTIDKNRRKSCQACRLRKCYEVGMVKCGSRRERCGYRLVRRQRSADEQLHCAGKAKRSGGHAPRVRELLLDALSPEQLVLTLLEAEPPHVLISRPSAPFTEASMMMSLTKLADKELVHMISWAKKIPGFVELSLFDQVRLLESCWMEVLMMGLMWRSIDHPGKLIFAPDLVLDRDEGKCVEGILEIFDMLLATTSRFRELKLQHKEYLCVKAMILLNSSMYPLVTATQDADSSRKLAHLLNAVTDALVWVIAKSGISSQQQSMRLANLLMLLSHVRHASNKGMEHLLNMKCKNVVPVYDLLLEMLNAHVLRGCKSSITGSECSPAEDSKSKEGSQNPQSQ

As for `Clc1ccc(C2=NOC(Cc3cccc4ccccc34)C2)cc1` (centres unmarked) [compound 41, 3-(4-Chlorophenyl)-5-naphthalen-1-ylmethyl-4,5-dihydro-isoxazole], the melting point (in general, the temperature, or range, at which the solid turns liquid) was 127.9 to 130.9 °C.
The same measure, in the same setting: with `COc1ccc(C2=NOC(Cc3ccc(F)cc3)C2)cc1` (centres unmarked) [compound 18, 5-(4-Fluorobenzyl)-3-(4-methoxyphenyl)-4,5-dihydroisoxazole] the figure was 116.7 to 118.7 °C; with `COc1ccc(C2=NOC(Cc3c(F)c(F)c(F)c(F)c3F)C2)cc1` (centres unmarked) [compound 19, 3-(4-methoxyphenyl)-5-pentafluorobenzyl-4,5-dihydroisoxazole], 123 to 124 °C; with `Oc1ccc(CC2CC(CCc3ccccc3)=NO2)cc1` (centres unmarked) [compound 94, 5-(4-Hydroxy-benzyl)-3-phenethyl-4,5-dihydro-isoxazole], 124.8 to 126.4 °C.
With `c1ccc(CCC2=NOC(c3ccccc3)C2)cc1` (centres unmarked) [compound 110, 3-Phenethyl-5-phenyl-4,5-dihydroisoxazole], the melting point lay in the range of 35 to 36.3 °C.
Same read-out and setting: for `COc1ccccc1C1=NOC(Cc2ccccc2)(c2ccccc2)C1` (centres unmarked) [compound 74, 5-Benzyl-3-(2-methoxyphenyl)-5-phenyl-4,5-dihydro-isoxazole] the value was 109.3 to 110.2 °C.
Still for that read-out and setting: with `COc1ccc(CC2CC(c3ccc(OC)cc3)=NO2)cc1` (centres unmarked) [compound 15, 5-(4-Methoxybenzyl)-3-(4-methoxyphenyl)-4,5-dihydroisoxazole] the figure was 135.8 to 137.7 °C.
Turning to `Oc1cccc(CCC2=NOC(Cc3ccccc3)C2)c1` (centres unmarked) [compound 92, 5-Benzyl-3-[2-(3-hydroxy-phenyl)-ethyl]-4,5-dihydro-isoxazole], the melting point is 120.6 to 122.8 °C.
Take `Oc1ccccc1CCC1=NOC(Cc2ccc(F)cc2)C1` (centres unmarked) [compound 97, 5-(4-Fluoro-benzyl)-3-[2-(2-hydroxy-phenyl)-ethyl]-4,5-dihydro-isoxazole]: the melting point fell in the range of 124.8 to 126.4 °C.
Still for that read-out and setting: for `COc1ccc(CC2CC(c3ccc(Cl)cc3)=NO2)cc1OC` (centres unmarked) [compound 39, 3-(4-Chlorophenyl)-5-(3,4-dimethoxybenzyl)-4,5-dihydroisoxazole] the value was 89 to 90.4 °C; for `COc1ccc(C2=NOC(CCc3ccccc3)C2)cc1` (centres unmarked) [compound 60, 3-(4-Methoxy-phenyl)-5-phenethyl-4,5-dihydro-isoxazole], 69.7 to 71.9 °C; for `Oc1ccc(CCC2=NOC(Cc3ccccc3)C2)cc1` (centres unmarked) [compound 93, 5-Benzyl-3-[2-(4-hydroxy-phenyl)-ethyl]-4,5-dihydro-isoxazole], 143 to 144.8 °C.
Same read-out and setting: for `COc1ccc(C2=NOC(C)(Cc3ccccc3)C2)cc1` (centres unmarked) [compound 53, 5-Benzyl-3-(4-methoxyphenyl)-5-methyl-4,5-dihydro-isoxazole] the value was 97.8 to 98.6 °C.
For `Oc1ccccc1CCC1=NOC(Cc2ccccc2)C1` (single isomer, unassigned) [91b, 5-Benzyl-3-[2-(2-hydroxy-phenyl)-ethyl]-4,5-dihydro-isoxazole], on ERα, the “ERα receptor activation relative to 10 nM E2 corresponding 100” value was 39.7%. Also, on ERβ, the “ERβ receptor activation relative to 10 nM E2 corresponding 100” value is listed as 30.5%.
As to `Oc1ccc(CCCC2=NOC(c3cccc(O)c3)C2)cc1` (single isomer, unassigned) [89a, 3-[3-(4-Hydroxy-phenyl)-propyl]-5-(3-hydroxy-phenyl)-4,5-dihydro-isoxazole], the “ERα receptor activation relative to 10 nM E2 corresponding 100” value at ERα was 32.9%. Besides, the activation at 10 µM on ERβ came out at 12%.
For `c1ccc(CCC2CC(Cc3ccccc3)=NO2)cc1` (centres unmarked) [108ab, 3-Benzyl-5-phenethyl-4,5-dihydroisoxazole], on ERα, the “ERα receptor activation relative to 10 nM E2 corresponding 100” value is 37.0%. On ERβ, the activation at 10 µM came to 1.2%.
For the compound `Oc1ccc(CC2CC(CCCc3ccc(O)c(O)c3)=NO2)cc1` (single isomer, unassigned) [103b, 3-[3-(3,4-Dihydroxy-phenyl)-propyl]-5-(4-hydroxy-benzyl)-4,5-dihydro-isoxazole], the “ERα receptor activation relative to 10 nM E2 corresponding 100” value on ERα was 1.4%. Moreover, the “ERβ receptor activation relative to 10 nM E2 corresponding 100” value at ERβ is −0.7%.
For `COc1ccccc1CC1CC(CCc2ccccc2)=NO1` (single isomer, unassigned) [64b, 5-(2-Methoxybenzyl)-3-phenethyl-4,5-dihydroisoxazole] the same measures were 0.4% and 6.4%.
The like results for `Oc1ccc(CC2CC(CCc3ccccc3)=NO2)cc1` (single isomer, unassigned) [94b, 5-(4-Hydroxy-benzyl)-3-phenethyl-4,5-dihydro-isoxazole] were, in that order, 105.2% and 42.4%.
Turning to `Fc1ccc(CC2CC(CCc3ccccc3)=NO2)cc1` (single isomer, unassigned) [66b, 5-(4-fluorobenzyl)-3-phenethyl-4,5-dihydroisoxazole], the “ERα receptor activation relative to 10 nM E2 corresponding 100” value at ERα turned out to be 28.9%. For the same compound, on ERβ, the “ERβ receptor activation relative to 10 nM E2 corresponding 100” value was 7.4%.
Turning to `Oc1ccccc1CCC1=NOC(Cc2ccc(F)cc2)C1` (single isomer, unassigned) [97a, 5-(4-Fluoro-benzyl)-3-[2-(2-hydroxy-phenyl)-ethyl]-4,5-dihydro-isoxazole], the “ERα receptor activation relative to 10 nM E2 corresponding 100” value on ERα worked out at 82.0%. Further, the “ERβ receptor activation relative to 10 nM E2 corresponding 100” value at ERβ was determined as 3.4%.
Consider `CC1(c2ccccc2)CC(CCc2ccccc2)=NO1` (single isomer, unassigned) [71b, 5-Methyl-3-phenethyl-5-phenyl-4,5-dihydroisoxazole], for which the “ERα receptor activation relative to 10 nM E2 corresponding 100” value on ERα came to 10.9%. In addition, on ERβ, the “ERβ receptor activation relative to 10 nM E2 corresponding 100” value is recorded as −7.3%.
For `Oc1ccc(CC2=NOC(c3cccc(O)c3)C2)cc1` (single isomer, unassigned) [83b, 3-(4-Hydroxy-benzyl)-5-(3-hydroxy-phenyl)-4,5-dihydro-isoxazole] the same measures were 3.6% and 41.3%.
For `Oc1ccccc1CCC1=NOC(Cc2ccc(F)cc2)C1` (single isomer, unassigned) [97b, 5-(4-Fluoro-benzyl)-3-[2-(2-hydroxy-phenyl)-ethyl]-4,5-dihydro-isoxazole] the same measures were 11.1% and −2.4%.
For `c1ccc(CCC2=NOC(Cc3ccc4ccccc4c3)C2)cc1` (single isomer, unassigned) [68b, 5-naphthalen-2-yl-methyl-3-phenethyl-4,5-dihydroisoxazole] the same measures were 13.0% and 3.8%.
With `Oc1ccc(CCCC2=NOC(Cc3ccccc3)C2)cc1` (single isomer, unassigned) [99b, 5-Benzyl-3-[3-(4-hydroxy-phenyl)-propyl]-4,5-dihydro-isoxazole], at ERα, the “ERα receptor activation relative to 10 nM E2 corresponding 100” value was 75.1%. Besides, the “ERβ receptor activation relative to 10 nM E2 corresponding 100” value at ERβ was 19.8%.
In the case of `Oc1ccc(CCC2=NOC(Cc3ccc(O)cc3)C2)cc1` (single isomer, unassigned) [96a, 5-(4-Hydroxy-benzyl)-3-[2-(4-hydroxy-phenyl)-ethyl]-4,5-dihydro-isoxazole], the “ERα receptor activation relative to 10 nM E2 corresponding 100” value on ERα worked out at 76.2%. The “ERβ receptor activation relative to 10 nM E2 corresponding 100” value on ERβ is 12.0%.

The values are drawn from patent publication US20100267784A1, “NOVEL 4,5-DIHYDROISOXAZOLES WITH ESTROGENIC ACTIVITY” (priority 2007, published 2010).
